Measurements from publication PMC11017298, “Macrocyclic Oxindole Peptide Epoxyketones—A Comparative Study of Macrocyclic Inhibitors of the 20S Proteasome” (ACS Medicinal Chemistry Letters, 2024).
Like-named read-outs stand apart in the source and are kept apart here.

Tests used:
Type in all cases: biochemical
[1] = target: T1, human 20S proteasome ChT-L activity (Homo sapiens, UniProt P28074); assay: Fluorometric kinetic enzyme assay, 20S proteasome ChT-L activity (Suc-LLVY-AMC); details: for IC50: constitutive human 20S proteasome, Suc-LLVY-AMC, 37 C, 10 min
T1 construct: human RBC proteasome was purchased from South Bay Bio; purchased South Bay Bio; host or cells: human red blood cells
Protocol: (§1) Fluorometric kinetic enzyme inhibition assays (for details, see Supporting Information) were performed for the ChT-L activity of the constitutive 20S proteasome to compare IC50 values for 5 with linear analogue 6, unoxidized macrocycles 15a and 15b, and macrocyclic C-terminal amide 12 (Table 1). Furthermore, inhibition of the 20S proteasomal ChT-L activity was compared with T-L and PGPH-L activities and with inhibition of serine protease chymotrypsin and cysteine proteases cathepsin B and m-calpain.
(§2) 6. In Vitro Kinetic Enzyme Assays
(§3) The inhibitory potency and selectivity of the final compounds were tested using in vitro fluorescent enzyme kinetics. The enzyme assays used the fluorogenic substrate Suc-Leu-Leu-Val-Tyr-AMC (Suc-LLVY-AMC) and either the human 20S proteasome or alternate proteases chymotrypsin, m-calpain and cathepsin B. For cathepsin B, Cbz-Arg-Arg-AMC was used as the fluorogenic substrate. Kinetic enzyme assays were carried out on a fluorescent 96-well plate reader and AMC-substrate hydrolysis was measured at 353 nm excitation and 442 nm emission. Wells with inhibitor and wells with control solution were run in tandem. Vi and v0 were calculated from the slope of the measured relative fluorescent units (RFUs) graphed against time for inhibitor and control wells, respectively. Values for vi /v0 were plotted as a function of inhibitor concentration with GraphPad Prism and IC50 values were calculated from a nonlinear regression analysis of the data ([Inhibitor] vs. response, three parameters).
Human 20S Proteasome ChT-L Activity: A well was loaded with 86 µL of buffer (20 mM HEPES, 0.5 mM EDTA, 0.037% SDS, pH 7.8), 2 µL of fluorogenic substrate (Suc-LLVY-AMC, 5 mM in DMSO), 20 µL of human 20S proteasome (0.34 µM in H2O) and either 2 µL of inhibitor (at varying concentrations in DMSO) or 2 µL of DMSO (control). The fluorescent signal of the cleaved AMC chromophore was measured in RFUs at 37 °C over a span of 10 minutes with measurements taken every 20 seconds. […]

[2] = target: T2, human 20S proteasome T-L activity (Homo sapiens, UniProt Q99436); assay: Fluorometric kinetic enzyme assay, 20S proteasome T-L activity (Ac-RLR-AMC)
T2 construct: human RBC proteasome was purchased from South Bay Bio; purchased South Bay Bio; host or cells: human red blood cells
Protocol: as §1, §2
as §3, with “parameters). […]” for “parameters).”
Human 20S Proteasome T-L Activity: A well was loaded with 69 µL of buffer (50 mM Tris, 1 mM EDTA, 100 mM NaCl, pH 7.5), 2 µL of fluorogenic substrate (Ac-RLR-AMC, 59 mM in DMSO), 2 µL of human 20S proteasome (2.6 µM in H2O) and either 2 µL of inhibitor (at varying concentrations in DMSO) or 2 µL of DMSO (control). […]

[3] = target: T3, human 20S proteasome PGPH-L activity (Homo sapiens, UniProt P28072); assay: Fluorometric kinetic enzyme assay, 20S proteasome PGPH-L activity (Cbz-LLE-AMC)
T3 construct: human RBC proteasome was purchased from South Bay Bio; purchased South Bay Bio; host or cells: human red blood cells
Protocol: as §1, §2
as §3, with “parameters). […]” for “parameters).”

chymotrypsin = target: T4, chymotrypsin (Bos taurus, UniProt P00766); assay: Fluorometric kinetic enzyme assay, chymotrypsin (Suc-LLVY-AMC)
T4 construct: chymotrypsin was purchased from Sigma Aldrich; purchased Sigma Aldrich; host or cells: bovine pancreas

[4] = target: T5, cathepsin B enzyme from human liver (Homo sapiens, UniProt P07858); assay: Fluorometric kinetic enzyme assay, cathepsin B (Cbz-Arg-Arg-AMC)
T5 construct: from human liver; purchased Millipore; host or cells: human liver

m-calpain = target: T6, m-calpain (Sus scrofa, UniProt P35750); assay: Fluorometric kinetic enzyme assay, m-calpain (Suc-LLVY-AMC)
T6 construct: erythrocytes calpain-1 were purchased from Millipore; purchased Millipore; host or cells: porcine erythrocytes
T6 sequence (P35750 1-714): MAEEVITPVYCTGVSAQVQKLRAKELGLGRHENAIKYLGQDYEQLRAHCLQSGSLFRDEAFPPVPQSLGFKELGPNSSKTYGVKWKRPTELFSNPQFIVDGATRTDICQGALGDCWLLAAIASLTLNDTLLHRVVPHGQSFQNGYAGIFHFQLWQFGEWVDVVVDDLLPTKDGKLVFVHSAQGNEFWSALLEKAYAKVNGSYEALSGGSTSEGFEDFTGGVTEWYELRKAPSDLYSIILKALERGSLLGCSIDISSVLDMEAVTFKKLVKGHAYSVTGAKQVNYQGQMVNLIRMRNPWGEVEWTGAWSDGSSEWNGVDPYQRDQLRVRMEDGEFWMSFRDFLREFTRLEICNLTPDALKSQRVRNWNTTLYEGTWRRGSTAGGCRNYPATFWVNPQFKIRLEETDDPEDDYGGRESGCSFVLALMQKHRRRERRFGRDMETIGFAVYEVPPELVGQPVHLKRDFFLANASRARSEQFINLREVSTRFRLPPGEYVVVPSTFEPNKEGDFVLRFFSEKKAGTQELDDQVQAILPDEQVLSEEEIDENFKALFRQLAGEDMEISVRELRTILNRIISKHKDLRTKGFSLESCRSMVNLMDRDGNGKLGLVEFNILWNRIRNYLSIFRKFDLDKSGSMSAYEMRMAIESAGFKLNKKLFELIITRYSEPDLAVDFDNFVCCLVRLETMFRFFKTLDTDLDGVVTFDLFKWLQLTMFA
T6 sequence (P04574 1-266 partner): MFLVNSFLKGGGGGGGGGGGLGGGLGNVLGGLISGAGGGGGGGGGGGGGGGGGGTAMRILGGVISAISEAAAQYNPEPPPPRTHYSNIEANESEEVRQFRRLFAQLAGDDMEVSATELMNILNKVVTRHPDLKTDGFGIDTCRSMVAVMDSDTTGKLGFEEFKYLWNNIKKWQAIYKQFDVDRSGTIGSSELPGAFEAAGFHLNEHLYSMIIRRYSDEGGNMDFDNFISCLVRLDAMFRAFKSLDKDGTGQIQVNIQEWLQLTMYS

[5] = human 20S proteasome, Ac-RLR-AMC, N.I. = no inhibition at 130 μM, read-out: IC50 20S Proteasome T-L Activity
[6] = human 20S proteasome, Cbz-LLE-AMC, N.I. = no inhibition at 130 μM, read-out: IC50 20S Proteasome PGPH-L Activity
[7] = Suc-LLVY-AMC, N.I. = no inhibition at 130 μM, read-out: IC50 Chymotrypsin
[8] = human liver enzyme, Cbz-Arg-Arg-AMC, pH 6.0, N.I. = no inhibition at 130 μM, read-out: IC50 Cathepsin B
[9] = Suc-LLVY-AMC, N.I. = no inhibition at 130 μM, read-out: IC50 m-Calpain

SMILES	IC50 [1]	IC50 [2, 5]	IC50 [3, 6]	IC50 (chymotrypsin; [7])	IC50 [4, 8]	IC50 (m-calpain; [9])	inhibition of T-L activity, in words [2]	inhibition of PGPH-L activity, in words [3]	inhibition of chymotrypsin, in words (chymotrypsin)	inhibition of cathepsin B, in words [4]	inhibition of m-calpain, in words (m-calpain)	fold lower potency (ChT-L) than macrocycle 5 ([1]; linear analogue versus macrocyclic 5)	IC50 [2]	IC50 [3]	IC50 (chymotrypsin)	IC50 [4]	IC50 (m-calpain)	inhibitory potency for the proteasome, in words ([1]; comparison among tested inhibitors)
CC(=O)N[C@H]1Cc2ccc([N+](=O)[O-])c(c2)Oc2ccc(cc2)C[C@@H](C(=O)N[C@@H](CC(C)C)C(=O)[C@@]2(C)CO2)NC(=O)[C@H](CC(C)C)NC1=O [15a]	0.55 ± 0.09 µM	> 130 µM	> 130 µM	> 130 µM	> 130 µM	> 130 µM	–	–	–	–	–	–	–	–	–	–	–	–
CC(=O)N[C@H]1Cc2ccc([N+](=O)[O-])c(c2)Oc2ccc(cc2)CC[C@@H](C(=O)N[C@@H](CC(C)C)C(=O)[C@@]2(C)CO2)NC(=O)[C@H](CC(C)C)NC1=O [15b]	2.9 ± 0.42 µM	> 130 µM	> 130 µM	> 130 µM	> 130 µM	> 130 µM	–	–	–	–	–	–	–	–	–	–	–	–
CC(C)C[C@H](NC(=O)[C@H](CCc1ccccc1)NC(=O)CN1CCOCC1)C(=O)N[C@@H](Cc1ccccc1)C(=O)N[C@@H](CC(C)C)C(=O)[C@@]1(C)CO1 [carfilzomib, reference compound]	–	–	–	> 130 µM	> 130 µM	> 130 µM	–	–	–	–	–	–	–	–	–	–	–	–
CC(=O)N[C@H]1Cc2ccc([N+](=O)[O-])c(c2)Oc2ccc3c(c2)C(C[C@@H](C(=O)N[C@@H](CC(C)C)C(=O)[C@@]2(C)CO2)NC(=O)[C@H](CC(C)C)NC1=O)C(=O)N3 (stereo partly drawn) [compound 5]	0.19 ± 0.02 µM	> 130 µM	52.5 ± 16.6 µM	> 130 µM	> 130 µM	> 130 µM	does not significantly inhibit	does not significantly inhibit	not found to have any cross-reactivity	not found to have any cross-reactivity	not found to have any cross-reactivity	–	–	–	–	–	–	–
CC(=O)N[C@@H](Cc1ccc([N+](=O)[O-])c(F)c1)C(=O)N[C@@H](CC(C)C)C(=O)N[C@@H](CC1C(=O)Nc2ccc(O)cc21)C(=O)N[C@@H](CC(C)C)C(=O)[C@@]1(C)CO1 (stereo partly drawn) [compound 6]	1 ± 0.1 µM	–	–	–	–	–	–	–	–	–	–	4 fold	> 130 µM	> 130 µM	> 130 µM	> 130 µM	> 130 µM	–
CC(=O)N[C@H]1Cc2ccc([N+](=O)[O-])c(c2)Oc2ccc3c(c2)C(C[C@@H](C(=O)N[C@@H](CC(C)C)C(N)=O)NC(=O)[C@H](CC(C)C)NC1=O)C(=O)N3 (stereo partly drawn) [compound 12]	25 ± 1 µM	46.1 ± 3.1 µM	> 130 µM	> 130 µM	> 130 µM	> 130 µM	–	–	–	–	–	–	–	–	–	–	–	least potent inhibitor
CC(C)C[C@@H](C=O)NC(=O)[C@@H]1Cc2ccc(cc2)Oc2cc(ccc2[N+](=O)[O-])C[C@H](NC(=O)OCc2ccccc2)C(=O)N[C@@H](CC(C)C)C(=O)N1 [compound 16, reference compound]	0.24 ± 0.06 µM	> 130 µM	7.51 ± 2.32 µM	> 130 µM	3.1 ± 1 µM	2 ± 0.3 µM	–	–	–	inhibits	inhibits	–	–	–	–	–	–	–
